In brackets after ≈: the same amount, converted by molar mass. Like-named read-outs stand apart in the source and are kept apart here.
Legend:
[1] = test system: Methicillin-Resistant Staphylococcus aureus (MRSA), CMRSA-1B; assay: MIC by sequential macrodilution (tube) broth method against MRSA; type: cell-based; parameters: key: (+): Positive visual bacterial growth; (−): Negative visual bacterial growth; details: 37° C. overnight
Experimental: (Nat. Committee for Clinical Laboratory Standards. Document M7-A5 2000, 20; 1-25). Bacterial suspensions containing 5×10^5 colony-forming units (CFU) were incubated with serial two-fold dilutions of each drug at 37° C. overnight, and growth was monitored visually. The range of MIC values among the triaryl-imidazole derivatives was 12.5-50 μg/ml.

[2] = test system: multi-drug resistant Staphylococcus aureus (CMRSA-1B); assay: Bactericidal effect against MRSA (CFU plating on TSA); type: cell-based; details: overnight with compound, plated on TSA, CFU count (FIG. 1)
Experimental: Serial dilutions of liquid cultures were incubated with the compounds at 37° C. overnight and then plated on Tryptic Soy Agar (TSA) plates. After incubation for 17 hours at 37° C., the number of live bacteria was calculated from the number of colonies grown per milliliter of culture and expressed as colony-forming units (CFU).

MRSA-1B387 = assay: In vivo inhibition of MRSA, acute infection in immunosuppressed CB17-SCID mice; parameters: species or system Staphylococcus aureus; details: 5×10^6 MRSA-1B387 in 5% mucin, 50 mg/kg I.P. immediately and 3 hours after inoculation
Experimental: Triaryl-imidazole compounds were tested in vivo for antibacterial activity against MRSA in a model of acute infection using immunosuppressed mice. Suspensions of 400 μL containing 5×10^6 MRSA-1B387 bacteria in 5% mucin were injected into groups of 5-10 female, 8-14 weeks CB17-SCID mice. Under these conditions bacterial infection produced 80-100% lethality in less than 48 hours. Each group of inoculated mice was treated with 50 mg/kg of the respective compound intraperitoneally (I.P.) immediately and 3 hours after bacterial inoculation.

[3] = test system: S. aureus, MRSA 1A-218, 1A-318, 1B-374, 1B-315, 1B-185, 1B387 and MSSA ATCC-6538, ATCC-29213; assay: MIC by standard microdilution method against S. aureus (MRSA and MSSA strains); type: cell-based; details: Staphylococcus aureus
Experimental: (§1) A standard microdilution method (NCCLS, 2000; Document M7-A5) was used to determine the minimum inhibitory concentrations (MICs) against S. aureus, methicillin-resistant strains (MRSA); 1A-218, 1A-318, 1B-374, 1B-315, 1B-185, 1B387 (Simor et al. 1999 Can Commun Dis Rep; 25:105-108) and methicillin-sensitive strains (MSSA); ATCC-6538 and ATCC-29213. The MICs of some compounds were also determined against other Gram-positive bacteria: Enterococcus faecium (ATCC 51559), Enterococcus faecalis (ATCC-51299, ATCC-29212) and Staphylococcus epidermidis (ATCC-35983).
(§2) Mueller-Hinton broth (MHB) is recommended as the medium of choice for susceptibility testing of commonly isolated, rapidly growing aerobic organisms such as the Gram-positive bacteria included in this study. A “cation-adjusted Mueller-Hinton broth” (Ca-MHB) was prepared by first preparing standard MHB from a dehydrated base as recommended by the manufacturer.
(§3) Single colonies from fresh agar plates of the different bacterial cultures were sub-cultured overnight in 3 ml of Tryptic soy broth (TSB) at 37° C. with shaking at 250 RPM. After 18-20 hours of incubation, the absorbance at λ=600 nm (OD600) were determined for each culture and adjusted to a final OD600=0.1 (4.2×10^7 cfu/ml). Bacterial suspensions were then diluted 1:200 in sterile Ca-MHB for the in vitro susceptibility test, with each well of the microtitre plate containing approximately 2×10^5 cfu/ml.
(§4) Stock solutions of the different test compounds were prepared at concentrations of 1,280 μg/ml, 640 μg/ml, or 320 μg/ml in 50% DMSO (dimethyl sulfoxide). Serial two-fold dilutions were then prepared in 50% DMSO (the working concentrations were 1:10 of the stock concentrations in 100 μl culture suspensions). The filled microtitre plates were sealed in plastic bags and incubated at 35° C. for 24 hr in an ambient air incubator with shaking at 250 RPM. MIC values were determined as the lowest concentration where complete inhibition of the visible bacterial growth was observed by the unaided eye and confirmed by the measurement of the optical density (OD600).

[4] = test system: Enterococcus faecalis (ATCC-51299); assay: MIC by microdilution against Enterococcus faecalis ATCC-51299; type: cell-based; details: unit not given in Table 4 (Table 3, same method: μg/ml)
Experimental: as §1, §2, §3, §4

[5] = test system: Staphylococcus epidermidis (ATCC-35983); assay: MIC by microdilution against Staphylococcus epidermidis; type: cell-based; details: unit not given in Table 4 (Table 3, same method: μg/ml)
Experimental: as §1, §2, §3, §4

[6] = type: in vivo; details: mice; injected 200 mg/kg per day
Experimental: In vivo acute toxicity tests were conducted using compounds 1, 2, 3 and 4. Mice were injected with each of the above compounds at a concentration of 200 mg/kg per day.

[7] = test system: Enterococcus faecalis (ATCC-29212); assay: MIC by microdilution against Enterococcus faecalis ATCC-29212; type: cell-based; details: unit not given in Table 4 (Table 3, same method: μg/ml)
Experimental: as §1, §2, §3, §4

[8] = test system: Enterococcus faecium (ATCC-51559); assay: MIC by microdilution against Enterococcus faecium; type: cell-based; details: unit not given in Table 4 (Table 3, same method: μg/ml)
Experimental: as §1, §2, §3, §4

[9] = test system: Candida albicans (ATCC 24433); assay: In vitro anti-fungal activity, microdilution against Candida albicans; type: cell-based; details: ATCC24433, C. albicans ATCC 24433, compound 25 μg/ml
Experimental: A microdilution method was used to determine the anti-fungal activity of different test compounds against Candida albicans (ATCC 24433) at 25 μg/ml. RPMI-1640 broth is recommended as the medium of choice for susceptibility testing of C. albicans (NCCLS, 2002; Document M27-A2) and was used in this study. The broth was buffered to pH 7.0 and then sterilized using a 250 ml vacuum driven disposable 0.45 um filtration system.
C. albicans was sub-cultured from a −80° C. stock onto Sabouraud dextrose agar and incubated for 24-48 hrs at 37° C. The fungi inoculum was prepared by picking five colonies of ˜1 mm in diameter from 24-48 hr old cultures. The colonies were then suspended in 5 ml of sterile normal saline (8.5 g/L NaCl; 0.85% saline) diluted 1:50 and further diluted 1:20 with medium to obtain two-fold inoculum (1-5×10^3 cfu/ml). […] The microtitre plates were then sealed in plastic bags and incubated at 35° C. for 24-48 hrs in an ambient air incubator with shaking at 250 RPM.
Inhibition of visible growth of C. albicans in the microtitre plate wells was assessed by the unaided eye and confirmed by OD600 reading. […] The MIC values of compounds with significant activity are also included.

MRSA 1B-387 [10] = assay: In vivo anti-bacterial activity, ICR mice inoculated I.P. with MRSA, oral treatment; details: Staphylococcus aureus
Experimental: For in vivo studies, groups of 5-10 female ICR mice (6-7 weeks) were inoculated intraperitonially with 3-8×10^7 CFU MRSA 1B-387 per mouse in 400 μl of 5% mucin. The test compounds at concentrations of 50 or 100 mg/kg were administered orally immediately after the bacterial inoculation and again 3 hours later. The selected dosages were administered twice daily throughout the experiment. The efficacy of the treatment was evaluated by comparison of mortality between the experimental and control groups (Table 5).

MRSA 1B-387 [11] = assay: In vivo anti-bacterial activity, ICR mice inoculated I.P. with MRSA, oral treatment; details: Staphylococcus aureus; remark: listed apart in the source
[12] = against all 8 strains of S. aureus tested except where indicated, microdilution, Ca-MHB, 35° C., 24 hr, read-out: MIC

| SMILES | visual bacterial growth ([1]; Conc. 3.12 μg/ml) | visual bacterial growth ([1]; Conc. 6.25 μg/ml) | visual bacterial growth ([1]; Conc. 12.50 μg/ml) | visual bacterial growth ([1]; Conc. 25.00 μg/ml) | visual bacterial growth ([1]; Conc. 50.00 μg/ml) | visual bacterial growth ([1]; Conc. 100.00 μg/ml) | bactericidal or bacteriostatic effect at the corresponding MIC [2] | Survival (%) (MRSA-1B387) | MIC [3, 12] [µg/mL] | MIC [4] | MIC [5] | MIC [7] | MIC [8] | also measured |
| --- | --- | --- | --- | --- | --- | --- | --- | --- | --- | --- | --- | --- | --- | --- |
| O=C(O)c1ccc(-c2nc(-c3ccc(Sc4ccccc4)cc3)c(-c3ccccc3)[nH]2)cc1 [Compound 1] | + | + | − | − | − | − | bactericidal effect | 40 |  |  |  |  |  |  |
| Cc1[nH]c2ccccc2c1-c1nc(-c2ccccc2)c(-c2ccccc2)[nH]1 [Compound 2] | + | + | − | − | − | − | bactericidal effect | 80 | 8 to 16 (≈ 22.9 to 45.8 µM) | 16 | 16 | 16 | 16 | acute toxicity (symptoms of sickness, total weight, organ weight and appearance) [6]: no toxic effects |
| O=C(O)c1ccc(-c2nc(-c3ccc(Br)cc3)c(-c3ccccc3Br)[nH]2)cc1 [Compound 3] | + | + | + | − | − | − | bacteriostatic effect |  |  |  |  |  |  | Survival (%) (MRSA-1B387; 50 mg/kg): 15% |
| O=C(O)c1ccc(-c2nc(-c3ccc(Br)cc3)c(-c3ccccc3Br)[nH]2)cc1 [Compound 4] | + | + | + | + | − | − | bacteriostatic effect |  |  |  |  |  |  | Survival (%) (MRSA-1B387; 50 mg/kg): 50% |
| Cc1[nH]c2ccccc2c1-c1nc(-c2ccc(Br)cc2)c(-c2ccc(Br)cc2)[nH]1 [Compound 13] |  |  |  |  |  |  |  |  | 2 to 4 (≈ 3.94 to 7.89 µM) | 32 |  |  | 32 | inhibition at 25 µg/mL ([9]; 24 h, read-out: Inhibition (%) after 24 h): 0%; inhibition at 25 µg/mL ([9]; 48 h, read-out: Inhibition (%) after 48 h): 0%; responders at 100 mg/kg (MRSA 1B-387 [10]): 20%; responders at 100 mg/kg (MRSA 1B-387 [10]; read-out: Survival %): 20% |
| Cc1[nH]c2ccccc2c1-c1nc(-c2ccc(Cl)cc2)c(-c2ccc(Cl)cc2)[nH]1 [Compound 19] |  |  |  |  |  |  |  |  | 4 (≈ 9.56 µM) | 8 | 4 | 8 | 8 | melting point: 165 to 167 °C |
| Brc1ccc2[nH]cc(-c3nc(-c4ccc(-c5ccccc5)cc4)c(-c4ccc(-c5ccccc5)cc4)[nH]3)c2c1 [Compound 41] |  |  |  |  |  |  |  |  | > 128 |  |  |  |  | melting point: 155 to 158 °C |
| Brc1ccc2[nH]cc(-c3nc4c5ccccc5c5ccccc5c4[nH]3)c2c1 [Compound 45] |  |  |  |  |  |  |  |  |  |  |  |  |  | MIC ([3]; 24 h): 0.5 µg/mL (≈ 1.21 µM); responders at 200 mg/kg (MRSA 1B-387 [11]): 40%; responders at 200 mg/kg (MRSA 1B-387 [11]; read-out: Survival %): 40%; responders at 100 mg/kg (MRSA 1B-387 [10]): 10%; responders at 100 mg/kg (MRSA 1B-387 [10]; read-out: Survival %): 20% |
| CN[C@H](CC(C)C)C(=O)N[C@H]1C(=O)N[C@@H](CC(N)=O)C(=O)N[C@H]2C(=O)N[C@H]3C(=O)N[C@H](C(=O)N[C@H](C(=O)O)c4cc(O)cc(O)c4-c4cc3ccc4O)[C@H](O)c3ccc(c(Cl)c3)Oc3cc2cc(c3O[C@@H]2O[C@H](CO)[C@@H](O)[C@H](O)[C@H]2O[C@H]2C[C@](C)(N)[C@H](O)[C@H](C)O2)Oc2ccc(cc2Cl)[C@H]1O [Vancomycin, reference compound] |  |  |  |  |  |  |  | 100 |  | 32 | 2 | 4 | >128 |  |
